Earlier results in paper PMC11302729, “Repurposing Hsp90 inhibitors as antimicrobials targeting two-component systems identifies compounds leading to loss of bacterial membrane integrity” (Microbiology Spectrum, 2024).

Assays:
[1] = tested on: CckA from Caulobacter crescentus; parameters: method as in PMID 29110989; details: cited from earlier work
[2] = tested on: PhoQ from Salmonella typhimurium; parameters: method as in PMID 29110989; details: cited from earlier work

| SMILES | IC50 [1] | IC50 [2] |
| --- | --- | --- |
| CCc1cc(-c2n[nH]c(C)c2-c2ccc3c(c2)OCCO3)c(O)cc1O [CCT018159] | 30 µM | 261 µM |
| COc1ccc(-c2c(-c3cc(Cl)c(O)cc3O)n[nH]c2C)cc1 [Compound 5b] | 14 µM | 238 µM |
